What is called inhibition is how much of the control response was suppressed. High values mean strong suppression, low ones little suppression.

Each structure is given as a SMILES string. “And” between values parts separate entries of the source, which are not always exact repeats. Identical values can stand only once.

Consider one compound from ChEMBL document CHEMBL5584247, “Stereochemical properties of quazepam and its affinity for the GABAA receptor” (Bioorg Med Chem Lett, 2024).

For assay [1], the target named is T1, GABA-A receptor; anion channel (Homo sapiens) (UniProt P14867+P47870+P18507+P28472+P48169+Q99928+Q9UN88+P34903+O00591+O14764+Q8N1C3+P18505+P78334+P47869+P31644+Q16445). The assay is described as follows: Inhibition of GABAA receptor (unknown origin) at 10 uM relative to control. The assay is classed as protein-complex assay.
Assay [2] deals with T1, GABA-A receptor; anion channel (Homo sapiens). The assay is described as follows: Inhibition of GABAA receptor (unknown origin) at 50 uM relative to control. The assay is classed as protein-complex assay.

Take `Cc1cc(Cl)cc2c1N(CC(F)(F)F)C(=S)CN=C2c1ccccc1F`: the inhibition was 24% and 17% and 26% in assay [1]; 35% and 31% in assay [2]; 53% in assay [2] (INHIBITOR).
